Measured values reported in ChEMBL document CHEMBL6092181, “Design, synthesis, and biological evaluation of imidazo[4,5-b]pyridine mitochondrial uncouplers for the treatment of metabolic dysfunction-associated steatohepatitis (MASH)” (Eur J Med Chem, 2024).
Active and inactive are the calls of the source. The calls are words filed in the database; no cut-off is given here.

Columns and labels:
L6 [1] = test: Uncoupling activity in rat L6 myoblasts assessed as oxygen consumption rate incubated over 90 mins; type: functional, cell-based
[2] = Cmax in C57BL/6 mouse at 10 mg/kg, po by LC-MS/MS method; type: ADME, organism-based; conditions: in vivo
[3] = Half-life in C57BL/6 mouse at 10 mg/kg, po by LC-MS/MS method; type: ADME, organism-based; conditions: in vivo
L6 [4] = test: Uncoupling activity in rat L6 myoblasts assessed as oxygen consumption rate incubated for 2 mins relative to N5,N6-bis(2-fluorophenyl)-[1,2,5]oxadiazolo[3,4-b]pyrazine-5,6-diamine; type: functional
[5] = Half-life in C57BL/6 mouse at 30 mg/kg, po by LC-MS/MS method; type: ADME, organism-based; conditions: in vivo
Mus musculus [6] = test: Anti-MASH activity in GAN-diet induced metabolic dysfunction associated steatohepatitis in C57BL/6 mouse assessed as decrease in liver triglyceride level at 100 to 300 mg/kg, po administered daily measured after 4 weeks; type: functional, organism-based; conditions: dose 100-300 mg/kg
Mus musculus [7] = test: Anti-MASH activity in GAN-diet induced metabolic dysfunction associated steatohepatitis in C57BL/6 mouse assessed as change in plasma cholesterol level at 100 to 300 mg/kg, po administered daily measured after 4 weeks; type: functional, organism-based; conditions: dose 100-300 mg/kg
[8] = Induction of respiration in rat L6 cells assessed as oxygen consumption rate at 3.3 uM pretreated with compound followed by N5,N6-bis(2-fluorophenyl)-[1,2,5]oxadiazolo[3,4-b]pyrazine-5,6-diamine addition; type: functional
[9] = Induction of respiration in rat L6 cells assessed as oxygen consumption rate at 3.3 uM; type: functional
[10] = Toxicity in C57BL/6 mouse assessed as adverse effect at 30 to 1000 mg/kg, po measured after 24 hrs; type: organism-based; conditions: in vivo, dose 30-1000 mg/kg
Mus musculus [11] = test: Anti-MASH activity in GAN-diet induced metabolic dysfunction associated steatohepatitis in C57BL/6 mouse assessed as change in liver size at 100 to 300 mg/kg, po administered daily measured after 4 weeks; type: functional, organism-based; conditions: dose 100-300 mg/kg
[12] = Toxicity in C57BL/6 mouse assessed as change in body temperature at 30 to 1000 mg/kg, po measured after 24 hrs; type: organism-based; conditions: in vivo, dose 30-1000 mg/kg
[13] = Toxicity in C57BL/6 mouse assessed as change in body weight at 100 to 300 mg/kg, po administered daily and measured after 31 days; type: organism-based; conditions: in vivo, 744 h, dose 100-300 mg/kg, time 31 day
[14] = Toxicity in C57BL/6 mouse assessed as change in body weight at 30 to 1000 mg/kg, po measured after 24 hrs; type: organism-based; conditions: in vivo, dose 30-1000 mg/kg
Mus musculus [15] = test: Anti-MASH activity in GAN-diet induced metabolic dysfunction associated steatohepatitis in C57BL/6 mouse assessed as change in plasma triglyceride level at 100 to 300 mg/kg, po administered daily measured after 4 weeks; type: functional, organism-based; conditions: dose 100-300 mg/kg
[16] = Toxicity in C57BL/6 mouse assessed as change in appetite at 30 to 1000 mg/kg, po measured after 24 hrs; type: organism-based; conditions: in vivo, dose 30-1000 mg/kg
L6 [17] = test: Uncoupling activity in rat L6 cells assessed as increase in oxygen consumption rate incubated for 40 mins in presence of rotenone; type: functional, cell-based
[18] = Cmax in C57BL/6 mouse at 30 mg/kg, po by LC-MS/MS method; type: ADME, organism-based; conditions: in vivo
L6 [19] = test: Uncoupling activity in rat L6 cells assessed as increase in oxygen consumption rate incubated for 40 mins in presence of antimycin A; type: functional, cell-based
L6 [20] = test: Cytotoxicity against rat L6 cells; type: toxicity, cell-based
[21] = Rattus norvegicus, L6, 1.5 h, read-out: EC50

Row | SMILES | EC50 (L6 [1]; [21]) [µM] | Activity (L6 [4]) [%] | further results
1 | FC(F)(F)c1nc2c(-c3cccc(Cl)c3)ccnc2[nH]1 | 2 | 32 | Cmax [2]: 18 µM; half-life [3]: 3 h
2 | FC(F)(F)c1ccc(-c2ccc3nc(C(F)(F)F)[nH]c3n2)cc1 | 1 | 11 | –
3 | Fc1cc(F)cc(-c2ncnc3[nH]c(C(F)(F)F)nc23)c1 | 4 | 54 | –
4 | Cc1ccnc2[nH]c(C(F)(F)F)nc12 | – | – | EC50 (L6 [1]; l6): Not_active
5 | FC(F)(F)c1cccc(-c2ncnc3[nH]c(C(F)(F)F)nc23)c1 | 1.2 | 46 | –
6 | Fc1cc(F)cc(Oc2ccc3nc(C(F)(F)F)[nH]c3n2)c1 | 3.9 | 45 | –
7 | FC(F)(F)c1ccc(-c2ccc3nc(C(F)(F)F)[nH]c3n2)cn1 | 11.9 | 47 | –
8 | Fc1ccccc1Oc1ccnc2[nH]c(C(F)(F)F)nc12 | 58 | 12 | –
9 | Oc1ccc(-c2ccnc3[nH]c(C(F)(F)F)nc23)cc1 | – | – | EC50 (L6 [1]; l6): Not_active
10 | FC(F)(F)c1ccc(-c2ccnc3[nH]c(C(F)(F)C(F)(F)F)nc23)cc1 | 4.69 | 31 | –
11 | CC(=O)c1ccc(-c2ccnc3[nH]c(C(F)(F)F)nc23)cc1 | > 100 | 21 | –
12 | Fc1cc(F)cc(-c2ccc3nc(C(F)(F)F)[nH]c3n2)c1 | 3.8 | 32 | –
13 | FC(F)(F)c1nc2c(-c3ccccc3)ccnc2[nH]1 | – | – | EC50 (L6 [1]; l6): Not_active
14 | Fc1ccc(Oc2ccc3nc(C(F)(F)F)[nH]c3n2)c(F)c1 | 12.6 | 43 | –
15 | FC(F)(F)c1nc2c(-c3ccc(Cl)cc3)ccnc2[nH]1 | > 100 | 22 | –
16 | FC(F)(F)c1nc2c(Cl)ccnc2[nH]1 | 29.8 | 14 | –
17 | FC(F)(F)Oc1cccc(-c2ccc3nc(C(F)(F)F)[nH]c3n2)c1 | 1.4 | 8 | –
18 | FC(F)(F)c1ccc(-c2ccnc3[nH]c(C(F)(F)F)nc23)cn1 | 2.6 | 25 | –
19 | Cc1ccc(-c2ccnc3[nH]c(C(F)(F)F)nc23)cc1 | – | – | EC50 (L6 [1]; l6): Not_active
20 | Fc1cccc(-c2ccnc3[nH]c(C(F)(F)F)nc23)c1 | 8.2 | 32 | –
21 | FC(F)(F)c1nc2c(-c3cc(Cl)cc(Cl)c3)ccnc2[nH]1 | 1.1 | 76 | Cmax [2]: 13 µM; half-life [3]: 25.3 h
22 | FC(F)(F)c1cccc(Oc2ccnc3[nH]c(C(F)(F)F)nc23)c1 | 3.7 | 20 | –
23 | CC(F)(F)c1nc2c(-c3ccc(C(F)(F)F)cc3)ccnc2[nH]1 | – | – | EC50 (L6 [1]; l6): Not_active
24 | Fc1cc(F)cc(-c2ccnc3[nH]c(C(F)(F)F)nc23)c1 | 1.5 | 42 | Cmax [2]: 37 µM; half-life [3]: 2.8 h

Row | SMILES | EC50 (L6 [1]; [21]) [µM] | Activity (L6 [4]) [%] | further results
25 | Fc1ccc(F)c(-c2ccnc3[nH]c(C(F)(F)F)nc23)c1 | 15 | 54 | –
26 | FC(F)(F)c1cccc(-c2ccnc3[nH]c(C(F)(F)F)nc23)c1 | 0.85 | 42 | Cmax [2]: 28 µM; half-life [3]: 5.5 h
27 | Fc1ccc(-c2ccc3nc(C(F)(F)F)[nH]c3n2)cc1 | 15 | 42 | –
28 | Fc1cccc(Oc2ccc3nc(C(F)(F)F)[nH]c3n2)c1F | 7.1 | 39 | –
29 | FC(F)c1nc2c(-c3ccc(C(F)(F)F)cc3)ccnc2[nH]1 | – | – | EC50 (L6 [1]; l6): Not_active
30 | FC(F)(F)c1cccc(Oc2ccc3nc(C(F)(F)F)[nH]c3n2)c1 | 1.8 | 19 | –
31 | Fc1ccccc1-c1ccnc2[nH]c(C(F)(F)F)nc12 | 19.4 | 18 | –
32 | FC(F)(F)Oc1cccc(-c2ccnc3[nH]c(C(F)(F)F)nc23)c1 | 0.83 | 41 | half-life [5]: 3.7 h; Activity (Mus musculus [6]): Active; Activity (Mus musculus [7]): inactive; Activity [8]: 300%; Activity [9]: 200%; Activity [10]: Non-toxic; Cmax [2]: 22 µM; Activity (Mus musculus [11]): inactive; Activity [12]: Non-toxic; Activity [13]: Non-toxic; Activity [14]: Non-toxic; half-life [3]: 1.3 h; Activity (Mus musculus [15]): inactive; Activity [16]: Non-toxic; Activity (L6 [17]): inactive; Cmax [18]: 34.7 µM; Activity (L6 [19]): inactive
33 | Fc1ccc(-c2ccnc3[nH]c(C(F)(F)F)nc23)c(F)c1 | 11 | 36 | –
34 | Fc1ccc(-c2ccnc3[nH]c(C(F)(F)F)nc23)cc1 | 4.4 | 6 | –
35 | Fc1ccccc1Oc1ccc2nc(C(F)(F)F)[nH]c2n1 | 30.8 | 30 | –
36 | FC(F)(F)c1ccc(-c2ccnc3[nH]c(C(F)(F)F)nc23)cc1 | 1.3 | 46 | Cmax [2]: 8 µM; half-life [3]: 3.4 h
37 | FC(F)(F)c1ccc(-c2ncnc3[nH]c(C(F)(F)F)nc23)cc1 | 1.2 | 45 | –
38 | Fc1ccccc1-c1ccc2nc(C(F)(F)F)[nH]c2n1 | 16 | 35 | –
39 | FC(F)(F)c1cc(-c2ccnc3[nH]c(C(F)(F)F)nc23)cc(C(F)(F)F)c1 | > 100 | 45 | –
40 | Fc1cc(F)cc(Oc2ccnc3[nH]c(C(F)(F)F)nc23)c1 | 11.9 | 43 | –
41 | FC(F)(F)c1cc(-c2ncnc3[nH]c(C(F)(F)F)nc23)cc(C(F)(F)F)c1 | – | – | Activity (L6 [20]): Toxic
42 | FC(F)(F)c1cccc(-c2ccc3nc(C(F)(F)F)[nH]c3n2)c1 | 3 | 36 | –
43 | COc1ccc(-c2ccnc3[nH]c(C(F)(F)F)nc23)cc1 | – | – | EC50 (L6 [1]; l6): Not_active
44 | FC(F)(F)Oc1ccc(-c2ccnc3[nH]c(C(F)(F)F)nc23)cc1 | 0.48 | 19 | –
45 | FC(F)(F)Oc1ccc(-c2ccc3nc(C(F)(F)F)[nH]c3n2)cc1 | 1.3 | 2 | –
46 | Fc1ccc(-c2ccnc3[nH]c(C(F)(F)F)nc23)cc1F | 4.4 | 34 | –
47 | Fc1cccc(Oc2ccc3nc(C(F)(F)F)[nH]c3n2)c1 | 10.3 | 47 | –
